Laboratory results: patent publication US9688637B2, “3-amidobenzamides and uses thereof for increasing cellular levels of A3G and other A3 family members” (Northwestern University, priority 2014, dated 2017)

Columns and labels:
A3G-Luc/Vif = A3G-Luc/Vif luciferase screen in 293T cells stably co-expressing A3G-Luc and HIV-1 Vif; format: cell-based, human; conditions: for Vif-A3G-Luc Activity (% of RLUs compared to DMSO treated control): 10 μM, 48 hrs, DMSO = 100%
Protocol: FIG. 6. 293T cell clone #6 stably co-expressing A3G-Luciferase fusion protein together with HIV-1 Vif was used. Small molecule compounds were tested for their effects on stability of A3G and inhibition of Vif activity against A3G by measuring luciferase activity, relative to treatment with control DMSO only. The relative % luciferase activity was higher after treatment with NU compounds than DMSO.
[…]. After sorting, expression of both A3G-Luc and Vif was confirmed by immunoblotting using antibody against both A3G and Vif.
(§1) To screen compounds that can boost A3G levels, 293T cells (25,000 cells per well in 96-well plate) stably expressing A3G-Luc protein or A3G-Luc/Vif proteins were plated. After 24 hrs post plating culture medium was replaced with 100 μl of new medium containing either DMSO as a control or various compounds (10 μM concentration). After 48 hrs of incubation with compounds culture medium was removed from each well and replaced with 100 μl of Britelite Plus luciferase assay substrate (PerkinElmer). Following 5 min. of incubation at room temperature, 75 μl of each cell lysate was transferred to a 96-well OptiPlate 96 (PerkinElmer) and luminescence was measured in a VICTOR X2 Multilabel Reader (PerkinElmer). Relative activity of compounds for their boosting capability A3G-Luc activity was calculated by plotting DMSO-treated A3G-Luc or A3G-Luc/Vif cells as 100%. Cellular cytotoxicity was measured by counting number of cells after 48 hrs of incubation with compounds compared to DMSO treated cells.

293T cells = test: Cellular cytotoxicity by counting cells after 48 hrs with compound vs DMSO; format: cell-based; conditions: concentration at which cell death was seen; 48 hrs
Protocol: as §1

Wild-type HIV-1 [1] = test: A3G-mediated restriction of wild-type HIV-1; virus from 293T stably expressing A3G, TZM-bl readout; format: cell-based; conditions: Human immunodeficiency virus 1, HEK-293T, read-out: A3G-mediated Restriction by Compounds on Wild-type HIV-1 (% of HIV replication relative to DMSO treated Control)
Protocol: (§2) To test the effect of compounds shown to boost A3G-Luc levels in our screening systems on inhibition of wild-type HIV-1 replication by A3G or A3F, 293T cell lines stably expressing A3G or A3F were plated (750,000 cells per well in 6-well plate). At 24 hrs post plating, 1.5 μg of a wild-type (Vif-positive) HIV-1 proviral vector, NL4.3, was transfected into the 293T stable cell lines expressing either A3G or A3F. At 4 hrs post transfection, either DMSO as a control or an individual compound from series described below was added into the culture medium at a 10 μM concentration. At 1 day post transfection, supernatant fluids containing viral particles were filtered through […] filter to remove cellular debris. To test the effect of compound on HIV-1 replication, TZM-bl indicator cells were plated at a density of 10,000 cells/well in a 96 well culture plate 24 hrs prior to infection. TZM-bl indicator cells express luciferase gene under the control of HIV LTR promoter and are routinely used to measure HIV-1 replication capability. On the day of infection, the culture medium was removed and the cells inoculated with equal amount of HIV-1 particles in triplicate with 100 μl of viral supernatants in culture medium containing 20 μg/ml DEAE-dextran. After 24 hrs of incubation, culture medium was removed from each well and replaced with 100 μl of Britelite Plus luciferase assay substrate. Following 5 min. of incubation at room temperature, 75 μl of each cell lysate was transferred to a 96-well OptiPlate 96 and luminescence was measured in a VICTOR X2 Multilabel Reader as described above. Relative infectivity was calculated by plotting luciferase activity from viral particle from DMSO treated A3G or A3F cell lines as 100%. We only tested effect A3F- or A3G mediated restriction of HIV-1 replication by compounds boosting luciferase activity by more than 160% compared to DMSO control sample.

Wild-type HIV-1 [2] = test: A3F-mediated restriction of wild-type HIV-1; virus from 293T stably expressing A3F, TZM-bl readout; format: cell-based; conditions: Human immunodeficiency virus 1, HEK-293T, read-out: A3F-mediated Restriction by Compounds on Wild-type HIV-1 (% of HIV replication relative to DMSO treated Control)
Protocol: as §2

wild type A3F = target: T1, wild type A3F (Homo sapiens, UniProt Q8IUX4); test: Steady state A3 protein level by immunoblot in transiently transfected 293T cells; format: cell-based; conditions: 293T transiently transfected, immunoblot (FIG. 7)
T1 construct: expressed in transfected cells; host or cells: 293T, transient transfection
Protocol: FIG. 7. 293T cells were transiently transfected with 400 ng of expression vectors for wild type A3G (A3G), a mutant A3G (A3G Y124A), and A3F (A3F) to test effect of NU52 treatment on steady state levels of the respective A3 protein, as detected by immunoblotting with respective antibodies, with GAPDH as loading control.

HIV NL4-3 = test: Infectivity of virions from 293T co-transfected with NL4-3 and A3F, TZM-bl cells; format: cell-based, HIV-1; conditions: co-transfection of 293T with HIV NL4-3 and A3F (FIG. 8)
Protocol: FIG. 8. 293T cells were co-transfected with […] of NL4.3 plasmid DNA and 400 ng of either control or A3F/G DNAs, with or without NU52. Infectivity of equal amounts of resulting viruses (normalized by HIV-1 p24 antigen) were measured using TZM-bl cells. NU-52 treatment of producer cell reduced infectivity of virus produced from those cells.

HEK293 = test: Cancer cell death, cell numbers vs DMSO; format: cell-based, human; conditions: 6 μM, 16 days; embryonic kidney cell line lacking A3B, wild-type functional p53
From the text: To test the effect of the compounds described below on cancer cell death, cell lines derived from different types of cancer were studied in vitro. MCF10A, MCF7, T47D, MDA-MB-157 and MDA-MB-231 are breast cancer cell lines. NHPrE, BHPrE, RWPE1, DU145, and PC3 cells are prostate cell lines. HeLa is cervical cancer cell line. HEK293 is human embryonic kidney cell line lacking A3B expression. There are differences among these cancer cell lines in p53 expression (44-46). MCF10A, MCF7, NHPrE, BHPrE and HEK293 cells have wild-type and functional p53. RWPE1 and HeLa cells have wild-type p53 but the p53 protein in these cell line is not functional because of effects of human papilloma virus E6 protein. T47D, MDA-MB-231, and DU145 cell lines have mutant p53, while MDA-MB-157 and PC3 cells have no p53 expression. 25,000 cells per well were plated in 6 well plates. In the case of HEK293 cells. 500,000 cells per well in 6-well plates were used instead. After 24 hrs, culture medium was replaced with new medium containing either DMSO as control or one of the compounds described below (6 μM per well concentration). After 8 days incubation with compounds, cell numbers were counted from each well and plotted with number of cells from DMSO treated sample as 100%. We performed the experiments at least twice. HEK293, MCF7 and T47D cells they were maintained for 16 days with compounds instead of 8 days.

BC-1 = BC-1 primary effusion lymphoma cell proliferation; format: cell-based; conditions: primary effusion lymphoma (PEL) cell line (FIG. 10)
From the text: FIG. 10. A primary effusion lymphoma (PEL) cell line (BC-1, infected with both Kaposi's sarcoma herpesvirus and Epstein Barr Virus) is also killed by the listed compounds.

T1 sequence (Q8IUX4 whole entry): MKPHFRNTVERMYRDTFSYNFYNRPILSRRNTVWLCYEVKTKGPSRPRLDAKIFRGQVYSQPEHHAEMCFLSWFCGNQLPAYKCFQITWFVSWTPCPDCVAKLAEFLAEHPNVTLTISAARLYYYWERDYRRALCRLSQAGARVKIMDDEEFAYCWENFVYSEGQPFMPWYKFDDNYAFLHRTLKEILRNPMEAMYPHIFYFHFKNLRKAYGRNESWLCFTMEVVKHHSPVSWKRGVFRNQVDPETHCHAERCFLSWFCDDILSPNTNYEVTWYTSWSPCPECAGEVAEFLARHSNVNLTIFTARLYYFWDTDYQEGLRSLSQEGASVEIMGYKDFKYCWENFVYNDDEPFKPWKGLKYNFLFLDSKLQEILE

SMILES: COc1ccc(C(=O)Nc2ccc(Cl)c(Cl)c2)cc1NC(=O)C(C)C [NU-52]
- Vif-A3G-Luc Activity (% of RLUs compared to DMSO treated control) (A3G-Luc/Vif): 135%
- increase of A3G (A3G-Luc/Vif; 293T stably expressing A3G-Luc, with Vif (FIG. 6)): about 3 fold
- Cytotoxicity: Cell Death at (293T cells): Cell Death at 30 μM
- activity at 10 µM (Wild-type HIV-1 [1]): 57%
- activity at 10 µM (Wild-type HIV-1 [2]): 57%
- expression of wild type A3F (wild type A3F): increased
- infectivity of virions (HIV NL4-3): decreased infectivity
- cell killing (cell numbers vs DMSO) (HEK293): not killed
- BC-1 cell proliferation (BC-1): inhibit BC-1 cell proliferation

SMILES: COc1ccc(C(=O)Nc2ccc(Cl)c(Cl)c2)cc1NC(=O)C1CCC1 [NU-302]
- Vif-A3G-Luc Activity (% of RLUs compared to DMSO treated control) (A3G-Luc/Vif): 167%
- activity at 10 µM (Wild-type HIV-1 [1]): 60%
- activity at 10 µM (Wild-type HIV-1 [2]): 58%
- cell killing (cell numbers vs DMSO) (HEK293): not killed
- BC-1 cell proliferation (BC-1): inhibit BC-1 cell proliferation

SMILES: COc1ccc(C(=O)Nc2ccc(Cl)c(Cl)c2)cc1NC(=O)CC1CC1 [NU-466]
- Vif-A3G-Luc Activity (% of RLUs compared to DMSO treated control) (A3G-Luc/Vif): 202%
- activity at 10 µM (Wild-type HIV-1 [1]): 72%
- activity at 10 µM (Wild-type HIV-1 [2]): 59%
- cell killing (cell numbers vs DMSO) (HEK293): not killed
- BC-1 cell proliferation (BC-1): inhibit BC-1 cell proliferation
